melting point [°C] | Structure (SMILES)
181 to 182 | Cc1cc(F)ccc1-c1nc(NC2CCCCC2)nc2c1ccc(=O)n2-c1ccccc1F
99 to 100 | NC(=O)C(CCCCCOc1cccc([N+](=O)[O-])c1C=O)C1NCCc2ccccc21 (stereo not given)
220 to 221 | CNC(=O)c1ccccc1Nc1nc(Nc2ccc3c(c2)COCC2CCCCN32)ncc1Cl (stereo not given)
234 to 235 | CCCCC[C@H]1CC[C@H](c2ccc(C(N)=O)cc2)CC1
182 to 184 | N#Cc1ccc(NS(=O)(=O)c2ccc(Cl)cc2)cc1
160 to 164 | COc1ccc(S(=O)(=O)N2C(=O)C(OC(=O)N3CCN(c4ccncc4)CC3)(c3ccccc3OC(C)C)c3cc(Cl)ccc32)c(OC)c1 (stereo not given)
69 to 71 | CN1CCCC(CC(=O)c2ccc(Cl)c(Cl)c2)C1 (stereo not given)
108 to 112 | CCCCCCCCCCCC(=O)OC1C(C)C(c2ccccc2)N(O)C(c2ccccc2)C1C (stereo not given)
150 | O=C1c2ccccc2C2C(c3ccccc31)C2(F)F (stereo not given)
126 to 127 | COc1cc(C(=O)Nc2ccc(S(=O)(=O)C(F)(F)F)cc2Cl)c(O)c(C(C)(C)C)c1
109 to 110 | COc1ccc2[nH]c(SCc3ncc(C)c(N(C)C)c3Cl)nc2c1
127 to 128 | C=CCc1cc(C(=O)OCC)ccc1NC(C)=O
168 to 169 | COCCc1nc2c(N)nc3cc(OCCn4cccc4)ccc3c2n1CC(C)(C)O
139 to 141 | Cc1onc(NS(=O)(=O)c2ccccc2)c1Cl
151 | OC(CN1CCN(C(c2ccccc2)c2ccccc2)CC1)c1ccc(OCc2ccccc2)cc1OCc1ccccc1 (stereo not given)
70 to 72 | Cc1ccc(C)c2cc3ccccc3cc12
87 to 88 | COc1cc(CCC(=O)c2c(OC)cc(OC)c(CCC(C)C)c2OCC(=O)O)ccc1O
134 to 136 | COC(=O)c1ccc(OCCNC(=O)c2ccc(Br)cc2)cc1
100 to 102 | CN(C(=N)Nc1ncccc1OCc1c(F)cccc1F)c1ccc(Cl)cc1
111 | CC(C)CC(NC(c1ccc(-c2ccc(S(C)(=O)=O)cc2)cc1)C(F)(F)F)C(=O)NC(C#N)CC(=O)OCc1ccccc1 (stereo not given)
52 | CCCCOC(=O)c1ccc2ccc(C)nc2c1OC(=O)C(C)(C)C
160 to 190 | O=C(NO)c1ccc2c(c1)CN(C(=O)c1ccc(-c3ccccc3)cc1)C2
176 to 178 | Cc1cccc(-c2nc(N)sc2-c2ccnc(-c3ccc(OCCN4CCCC4)cc3)c2)n1

melting point [°C] | Structure (SMILES)
232 to 233 | CS(=O)(=O)c1ccc(-c2oc3ccccc3c(=O)c2-c2cnccc2Cl)cc1
95 to 95.5 | O=C1c2ccccc2CCn2c(SC(F)(F)F)ccc21
136 to 137 | CC(=CN1C(=O)c2ccccc2C1=O)c1ccco1
221 to 223 | O=C(c1ccc(C(=O)c2ccc(F)c([N+](=O)[O-])c2)cc1)c1ccc(F)c([N+](=O)[O-])c1
144 | CC(C)(C)OC(=O)N1CCCC1(Cc1ccc(Br)cc1)C(=O)O (stereo not given)
164 to 165 | COc1cc2sc(=O)n(C(C)=O)c2cc1OC
62 to 65 | CC(C)Cc1ccc(C(C)C(=O)OC2OC(=O)c3ccccc32)cc1 (stereo not given)
204 to 206 | CCCCN(Cc1ccc2c(Br)c(OCc3nnn[nH]3)ccc2c1)C(=O)c1c(C)oc2ccccc12
171 to 173 | Cn1c(C(F)(F)F)cc(=O)n(-c2cc(OC(=O)NC3CCCCC3)c(Cl)cc2F)c1=O
74 to 85 | Cc1cc(NSc2ccccc2[N+](=O)[O-])ccc1Oc1ncc(Cl)cn1
79 to 80 | CC1(C)OC(C=Cc2ccoc2)=CC1=O
93 to 95 | COc1ccccc1N1CCN(C(=O)CCCN2CC=C(c3c[nH]c4cc(Cl)ccc34)CC2)CC1
80 to 81 | CCOC(=O)CCn1c(=O)c2ccccc2n(CCCCl)c1=O
194 to 195 | Nc1cc(NCCC2CCCCC2)nc2c1ncn2C1OC(CO)C(O)C1O (stereo not given)
121 to 123 | CCn1c(COCc2ccccc2)nc(C(C)C)c1Sc1cccc([N+](=O)[O-])c1
271 to 273 | O=c1[nH][nH]c(=O)n1-c1c(F)cc(Cl)c2c1CCCO2
203 to 206 | N#Cc1cccc2c1CC(=NN)c1cccc(F)c1S2
169 to 171 | Cc1noc(CC(=O)N(N)C(=O)c2ccco2)n1
92 to 95 | O=C1N(Cc2ccc(C(F)(F)F)o2)c2ccc(F)cc2C1(CO)c1cc2c(cc1O)OCO2 (stereo not given)
198 to 200 | COc1ccc(-c2c(C(=O)O)[nH]c3cc(OC)c(OC)cc23)cc1OC
148 to 151 | Cn1nc(-c2ccc(F)cc2)c(-c2ccncc2)c1CC(=O)Cc1ccccc1
113 to 115 | O=C(O)COc1ccc(SCc2cccc(OCc3ccc(C(F)(F)F)cc3)c2)c2c1CCCO2
147 to 149 | Cc1nc2c(s1)CN=C(c1ccccc1F)c1cc(Cl)ccc1-2

melting point [°C] | Structure (SMILES)
165 to 167 | COc1ccc(-n2nc(Sc3ccc(OC(F)(F)F)cc3)c(C)c(C#N)c2=O)cc1
144 to 146 | CCCCc1ccc2c(c1)-c1[nH]c(C(=O)OC)cc(=O)c1CS2
138 to 139 | CCC(CC)(CC)C(=O)Nc1nn(C)c2c1sc1ncccc12
86 to 88 | Nc1ccc(-c2cc3ccccn3c2C(=O)CCC(=O)O)cc1
75 to 78 | CCc1ccc(-c2nc3cccnc3n2-c2ccc(CCNC[C@H](O)COc3ccc(O)cc3)cc2)cc1
285 to 288 | Nc1c2c(=O)n3c(nc2nn1CC(F)(F)F)SCC3
40 | CCCCCc1ccc(CCc2ccc(-c3ccc(CC)cc3F)cc2)cc1
60 to 67 | CN(C)c1cccc2c(S(=O)(=O)NCC(=O)N3CCC[C@H]3C(=O)OC(C)(C)C)cccc12
170 to 171 | CCCc1c(O)cc2oc3cccn3c(=O)c2c1O
130 | CCOC(C#CCN1CCC(NC(=O)c2ccccc2)CC1)OCC
104 to 105 | COc1cc(C(C)=O)ccc1OCCCCN1CCC(C(O)(c2ccc(F)cc2)c2ccc(F)cc2)CC1
85 to 86 | C[C@@H]1CO[C@]2(CC[C@@H](OCc3ccccc3)C2)N1C(=O)c1ccccc1
139 to 142 | COC(=C(OC)c1ccccc1OC)c1ccc(N)nn1
157 to 160 | CNC(=NS(=O)(=O)c1ccc(C(F)(F)F)cc1)N1CC(c2ccccc2)C(c2ccc(Cl)cc2)=N1 (single isomer, unassigned; (-))
263 to 266 | Nc1ncc(-c2ccc3ncc(-c4ccc(CN5CCC(C(=O)N6CCCCC6)CC5)cc4)n3n2)cc1C(F)(F)F
213 to 214 | O=C1Nc2cccc(-c3cccs3)c2/C1=C/c1ccc[nH]1
47 to 49 | CCCCNc1ccc(OC)c(Cl)c1Cl
20 to 22 | O=C1CO[C@@H]2CCCC[C@H]2O1 (relative stereo)
50.7 | COC(=O)C(C)Oc1cccc(C=O)c1 (stereo not given)
99 to 101 | CC(C)(C)c1cc(O)no1
211 to 212 | Cc1c(-c2ccccc2)c(N2CC(N(C)C)C2)c2oc(C(C)(C)C)nc2c1C#N
179 to 181 | COc1ccc(-c2c(NC(C)C(C)(C)C)c(=O)c2=O)cc1 (stereo not given)
106 to 107 | COC(=O)C(C)c1noc2cc(F)c(N3C(=O)C(C)=C(C)C3=O)cc12 (stereo not given)

melting point [°C] | Structure (SMILES)
173 to 175 | O=c1[nH]c2ccccc2c(=O)n1CCCN1CCC(OC(c2ccccc2)c2ccccc2)CC1
106 to 108 | CCOC(=O)N1N=C(c2ccc([N+](=O)[O-])cc2)c2cc(Cl)c(Cl)cc2CC1C (stereo not given)
209 to 210 | O=c1oc2ccc(-c3ccc(F)cc3F)cc2c(=O)n1-c1ccc(C(F)(F)F)cc1
153 to 155 | S=C(NCCC1=CCCCC1)Nc1ccccn1
114 | COc1cc(N)c(Cl)cc1C(=O)NC1CCN(CCNC(=O)C(CO)c2ccccc2)CC1OC (stereo not given)
124 to 126 | CCOC(=O)C(O)=Cc1nccc(OCc2ccccc2)n1
138 to 139 | COc1ccc(N2CC(=O)N(c3ccc(OC)nc3-c3ccc(N(C)C)cc3)CC2=O)cc1
100 to 102 | CC(=O)SC[C@H](NC(=O)C(C)C)C(=O)NCCSC(=O)C(C)C
178 | Cc1ccc2c(c1)[nH]c(=O)n2CCCN1CCN(C(c2ccccc2)c2ccccc2)CC1
162 to 163 | Cc1ccc(CN2CCN(CCCOc3ccc4[nH]c(=O)cc(C)c4c3)CC2)cc1
143 to 144 | CC(C)(C)c1cc(C(=O)c2c[nH]c(SC#N)c2SC#N)cc(C(C)(C)C)c1O
117 to 120 | CCOC(=O)Cn1c2c(c3cc(Cl)cc(Cl)c31)CCN(C(=O)OC(C)(C)C)CC2
173 to 175 | Cc1ccc(NC(=O)Nc2cccc(Oc3ccc4nc(COc5ccc(CC6SC(=O)NC6=O)cc5)n(C)c4c3)c2)cc1 (stereo not given)
111 to 112 | COc1ccc(C(=O)NCc2ccc(OCCN(C)C)cc2)cc1OC
92 to 95 | CS(=O)(=O)c1ccc(C(CC2CCCC2)C(=O)Nc2ccccn2)cc1[N+](=O)[O-] (stereo not given)
> 270 | CC(C)(C)OC(=O)Nc1ccc(O)c(C(=O)O)c1
270 to 272 | CNC1CN(c2c(F)cc3c(=O)c(C(=O)O)cn(C4CC4)c3c2F)C1
201 to 203 | O=C(Cn1nnc2ccccc21)Nc1ccc(-n2nc(C3CC3)cc2C2CC2)c(F)c1
140 to 142 | CCS(=O)(=O)N[C@H](C(=O)NCCc1ccc(OCc2ccccc2)c(OC)c1)C(C)C
60 to 61 | CCOC(=O)c1ccc(OCCCCCCCc2cc(C)no2)cc1
244 to 245 | C/C(=C(\C#N)C(N)=S)N1CCc2ccccc2C1

Structure (SMILES) | melting point [°C]
Oc1ccc2c(c1)CCCC2Cc1c[nH]cn1 (stereo not given) | 200 to 205
OCC1CNCCC1c1ccc(F)cc1 (stereo not given) | 123 to 124
CN1C(=O)[C@H](NC(=O)C2CCC3(CC2)CCN(C(=O)OC(C)(C)C)CC3)N=C(c2ccccc2)c2ccccc21 | 135 to 138
Cc1c(Br)c(N2CC[C@H](N(C)C)C2)c2oc(C3CC3)nc2c1C#N | 82 to 86
CCCNC(=O)CCC(C)C1CCC2C3C(OC(C)=O)CC4CC(OO)(OO)CCC4(C)C3CC(OC(C)=O)C12C (stereo not given) | 120 to 129

From a melting point compilation (Tetko et al.; mined from patent text by program, amines drawn as free bases though some values may be those of a salt)
